Patent publication US7135466B2 (Kirin Beer Kabushiki Kaisha, priority 1999, dated 2006)
Where two headings read alike, the source gives them in different places.

Molecular target: T1, PDGF-Ra (Homo sapiens, UniProt P16234)
T1 construct: host or cells: G-292 human osteosarcoma cells
Assay: Inhibitory activity against PDGF-Ra phosphorylation by PDGF-AA stimulation using G292
Format: cell-based
Details: for IC50: > means inhibition at indicated concentration not more than 50%, < and << not less than 50%, read-out: PDGF (E) IC50; for inhibition at 0.1 µM: G292, figure within parentheses in >100( ), at 100 nM, read-out: PDGF (E) inhibition (%) at 100 nM
Protocol: Measurement of Inhibitory Activity Against PDGF-Ra Phosphorylation by PDGF-AA Stimulation Using G292
G-292 human osteosarcoma cells (Dainippon Pharmaceutical Co. Ltd.) were cultured in a DMEM medium (Dainippon Pharmaceutical Co. Ltd.) containing 10% FBS within an incubator containing 5% carbon dioxide until 80% confluent, and the cells were planted at 3×10^4 cells per well in 96-well flat-bottom plates in the same medium containing 0.1% FBS. After cultivation at 37° C. overnight, a solution of a test compound in dimethyl sulfoxide was added to each well, and a reaction was allowed to proceed at 37° C. for one hr.
After the reaction of the test compound, PDGF-AA (Upstate) was added to 50 ng/ml, and the cells were stimulated at 37° C. for 5 min. Thereafter, the cells were solubilized and shaken at room temperature for 20 min.
This solubilized cell solution was transferred to a 96-well plate coated with aniti-phosphotyrosine antibody PY-20, and a reaction was allowed to proceed at 4° C. overnight. Anti-PDGF-Ra (c-20) (Santa Cruz) was added as a primary antibody, and a reaction was allowed to proceed for one hr. GAR (Anti-rabbit Ig, horseradish peroxidase, Amersham) was then added as a secondary antibody, and a reaction was allowed to proceed for one hr. Color development was carried out using a color development kit for peroxidase (Sumitomo Bakelite Co., Ltd.), and the absorbance was measured at 450 nm.

T1 sequence (P16234 24-1089): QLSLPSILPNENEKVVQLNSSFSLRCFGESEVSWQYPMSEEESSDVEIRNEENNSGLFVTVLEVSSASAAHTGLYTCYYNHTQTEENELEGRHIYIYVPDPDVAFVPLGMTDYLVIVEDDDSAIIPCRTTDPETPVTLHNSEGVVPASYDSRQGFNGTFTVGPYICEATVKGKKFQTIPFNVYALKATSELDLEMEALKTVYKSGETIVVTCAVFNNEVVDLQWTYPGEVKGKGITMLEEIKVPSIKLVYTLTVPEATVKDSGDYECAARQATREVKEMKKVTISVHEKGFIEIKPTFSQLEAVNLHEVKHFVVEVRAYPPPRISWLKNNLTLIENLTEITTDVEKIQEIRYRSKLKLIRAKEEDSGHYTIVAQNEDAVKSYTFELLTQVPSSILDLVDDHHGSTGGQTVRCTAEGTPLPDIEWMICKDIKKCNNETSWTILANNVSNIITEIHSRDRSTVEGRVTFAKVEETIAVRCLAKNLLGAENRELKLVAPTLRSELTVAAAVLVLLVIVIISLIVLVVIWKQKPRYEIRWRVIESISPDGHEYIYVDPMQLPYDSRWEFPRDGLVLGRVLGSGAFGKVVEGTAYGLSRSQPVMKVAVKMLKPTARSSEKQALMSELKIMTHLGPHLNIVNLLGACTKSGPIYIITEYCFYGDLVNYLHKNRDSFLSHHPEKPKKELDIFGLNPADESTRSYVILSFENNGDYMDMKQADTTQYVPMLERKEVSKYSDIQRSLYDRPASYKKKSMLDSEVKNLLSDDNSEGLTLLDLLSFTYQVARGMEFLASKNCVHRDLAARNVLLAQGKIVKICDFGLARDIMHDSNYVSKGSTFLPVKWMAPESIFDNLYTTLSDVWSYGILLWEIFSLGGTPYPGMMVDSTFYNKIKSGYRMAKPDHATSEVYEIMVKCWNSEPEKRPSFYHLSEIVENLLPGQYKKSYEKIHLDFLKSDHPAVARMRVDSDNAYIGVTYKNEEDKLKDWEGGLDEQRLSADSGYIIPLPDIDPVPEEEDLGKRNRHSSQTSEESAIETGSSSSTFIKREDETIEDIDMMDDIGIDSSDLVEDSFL

Compound	IC50	inhibition at 0.1 µM	IC50 (Pharmacological Test Example 1)
COc1cc2nccc(Oc3ccc(NC(=S)NC(=O)N(CCCl)CCCl)cc3Cl)c2cc1OC [Example 1049, N-{3-Chloro-4-[(6,7-dimethoxy-4-quinolyl)oxy]phenyl}-[{[di(2-chloroethyl)amino]carbonyl}amino]methanethioamide]	44 nM		
COc1cc2nccc(Oc3cc(C)c(NC(=O)Oc4ccc(C#N)cc4)cc3C)c2cc1OC [Example 460, 4-Cyanophenyl N-{4-[(6,7-dimethoxy-4-quinolyl)oxy]-2,5-dimethylphenyl}carbamate]	> 100 nM	15%	
COc1cc2nccc(Oc3ccc(NC(=S)NC(=O)Cc4ccc(CBr)cc4)cc3)c2cc1OC [Example 1169, N-{2-[4-(Bromomethyl)phenyl]acetyl}-N′-{4-[(6,7-dimethoxy-4-quinolyl)oxy]phenyl}thiourea]	37 nM		
4-(Dimethylamino)butyl N-{4-[(6,7-dimethoxy-4-quinolyl)oxy]phenyl}carbamate [Example 192]			56 nM
CCCCOc1ccc(C(=O)NC(=S)Nc2ccc(Oc3ccnc4cc(OC)c(OC)cc34)c(Cl)c2)cc1 [Example 752, N-(4-Butoxybenzoyl)-N′-{3-chloro-4-[(6,7-dimethoxy-4-quinolyl)oxy]phenyl}thiourea]	> 100 nM	37%	
CCOC(=O)CCCC(=O)NC(=S)Nc1ccc(Oc2ncnc3cc(OC)c(OC)cc23)cc1 [Example 1177, Ethyl 5-[({4-[(6,7-dimethoxy-4-quinazolinyl)oxy]anilino}carbothioyl)amino]-5-oxopentanoate]	17 nM		
COc1cc2nccc(Oc3ccc(NC(=S)NC(=O)c4cccnc4)cc3)c2cc1OC [Example 1152, N-{4-[(6,7-Dimethoxy-4-quinolyl)oxy]phenyl}-N′-(3-pyridylcarbonyl)thiourea]	< 10 nM		
COc1cc2ncnc(Oc3ccc(NC(=O)Sc4ccc(Cl)cc4C)cc3)c2cc1OC [Example 179, 4-Chloro-2-methylphenyl{4-[(6,7-dimethoxy-4-quinazolinyl)oxy]anilino}methanethioate]			70 nM
COc1cc2nccc(Oc3cc(C)c(NC(=O)OC(c4ccccc4)C(C)C)cc3C)c2cc1OC (stereo not shown) [Example 197, 2-Methyl-1-phenylpropyl N-{4-[(6,7-dimethoxy-4-quinolyl)oxy]-2,5-dimethylphenyl}carbamate]			93 nM
COc1cc2nccc(Oc3cc(C)c(NC(=O)OCC4CC4)cc3C)c2cc1OC [Example 381, Cyclopropylmethyl N-{4-[(6,7-dimethoxy-4-quinolyl)oxy]-2,5-dimethylphenyl}carbamate]			66 nM
COc1cc2nccc(Oc3ccc(NC(=S)NC(=O)c4ccc(Br)cc4)cc3)c2cc1OC [Example 1166, N-(4-Bromobenzoyl)-N′-{4-[(6,7-dimethoxy-4-quinolyl)oxy]phenyl}thiourea]	< 10 nM		
COc1cc2ncnc(Oc3ccc(NC(=S)NC4CCN(Cc5ccccc5)CC4)cc3)c2cc1OC [Example 518, N-{4-[(6,7-Dimethoxy-4-quinazolinyl)oxy]phenyl}-N′-[4-(1-benzylpiperidinyl)]thiourea]	> 100 nM	17%	
COc1cc2nccc(Oc3cc(C)c(NC(=S)NCCCN4CCCCC4C)cc3C)c2cc1OC (stereo not shown) [Example 554, N-{4-[(6,7-Dimethoxy-4-quinolyl)oxy]-2,5-dimethylphenyl}-N′-[3-(2-methylpiperidinyl)propyl]thiourea]	> 100 nM	14%	
COc1cc2nccc(Oc3ccc(NC(=S)NC(=O)c4ccc(Cl)cc4)c(Cl)c3)c2cc1OC [Example 1174, N-(4-Chlorobenzoyl)-N′-{2-chloro-4-[(6,7-dimethoxy-4-quinolyl)oxy]phenyl}thiourea]	> 100 nM		
COc1cc2nccc(Oc3ccc(NC(=S)NC(=O)C(C)(C)Oc4ccc(Cl)cc4)cc3Cl)c2cc1OC [Example 758, N-{3-Chloro-4-[(6,7-dimethoxy-4-quinolyl)oxy]phenyl}-N′-[2-(4-chlorophenoxy)-2-methylpropanoyl]thiourea]	> 100 nM	18%	
CCCC(CCC)OC(=O)N(CC)c1ccc(Oc2ncnc3cc(OC)c(OC)cc23)cc1Cl [Example 488, 1-Propylbutyl N-{2-chloro-4-[(6,7-dimethoxy-4-quinazolinyl)oxy]phenyl}-N-ethylcarbamate]	98 nM		
CCCCCOc1ccc(C(=O)NC(=S)Nc2ccc(Oc3ccnc4cc(OC)c(OC)cc34)c(Cl)c2)cc1 [Example 754, N-{3-Chloro-4-[(6,7-dimethoxy-4-quinolyl)oxy]phenyl}-N′-[4-(pentyloxy)benzoyl]thiourea]	> 100 nM	7%	
COc1ccc(C(=O)NC(=S)Nc2ccc(Oc3ccnc4cc(OC)c(OC)cc34)cc2Cl)cc1 [Example 1173, N-{2-Chloro-4-[(6,7-dimethoxy-4-quinolyl)oxy]phenyl}-N′-(4-methoxybenzoyl)thiourea]	> 100 nM		
COc1cc2nccc(Oc3ccc(NC(=O)ON4C(=O)c5ccccc5C4=O)cc3)c2cc1OC [Example 416, 1,3-Dioxo-2,3-dihydro-1H-2-isoindolyl N-{4-[(6,7-dimethoxy-4-quinolyl)oxy]phenyl}carbamate]	> 100 nM	49%	

Now from value to compound:

IC50	inhibition at 0.1 µM	IC50 (Pharmacological Test Example 1)	Compound
> 100 nM			COc1cc2nccc(Oc3ccc(NC(=S)NC(=O)C(OC)c4ccccc4)cc3Cl)c2cc1OC (stereo not shown) [Example 762, N-{3-Chloro-4-[(6,7-dimethoxy-4-quinolyl)oxy]phenyl}-N′-(2-methoxy-2-phenylacetyl)thiourea]
< 10 nM			COc1cc2ncnc(Oc3ccc(NC(=S)NC(=O)CCCCCl)cc3)c2cc1OC [Example 1170, N-(5-Chloropentanoyl)-N′-{4-[(6,7-dimethoxy-4-quinazolinyl)oxy]phenyl}thiourea]
> 100 nM			COc1cc2nccc(Oc3ccc(NC(=S)NN4CCCCC4)c(C)c3C)c2cc1OC [Example 521, N-{4-[(6,7-Dimethoxy-4-quinolyl)oxy]-2,3-dimethylphenyl}-N′-(1-piperidinyl)thiourea]
70 nM			CCCC(CCN(CC)CC)OC(=O)Nc1ccc(Oc2ccnc3cc(OC)c(OC)cc23)cc1 (stereo not shown) [Example 441, 1-[2-(Diethylamino)ethyl]butyl N-{4-[(6,7-dimethoxy-4-quinolyl)oxy]phenyl}carbamate]
40 nM			COc1cc2nccc(Oc3ccc(NC(=S)NC(=O)[C@H](C)c4ccccc4)cc3Cl)c2cc1OC [Example 744, N-{3-Chloro-4-[(6,7-dimethoxy-4-quinolyl)oxy]phenyl}-N′-[(2R)-2-phenylpropanoyl]thiourea]
42 nM			COc1cc2ncnc(Oc3ccc(NC(=S)NC(=O)CCCl)cc3)c2cc1OC [Example 1199, N-(3-Chloropropanoyl)-N′-{4-[(6,7-dimethoxy-4-quinazolinyl)oxy]phenyl}thiourea]
< 10 nM			COc1cc2ncnc(Oc3ccc(NC(=S)NC(=O)c4ccc(Br)cc4)cc3)c2cc1OC [Example 1168, N-(4-Bromobenzoyl)-N′-{4-[(6,7-dimethoxy-4-quinazolinyl)oxy]phenyl}thiourea]
> 100 nM	16%		COc1cc2nccc(Oc3ccc(NC(=O)OC4CCN(C)CC4)cc3)c2cc1OC [Example 466, 1-Methyl-4-piperidyl N-{4-[(6,7-dimethoxy-4-quinolyl)oxy]phenyl}carbamate]
56 nM			COc1cc2nccc(Oc3ccc(NC(=S)NC(=O)C4(c5ccccc5)CC4)cc3Cl)c2cc1OC [Example 1194, N-{3-Chloro-4-[(6,7-dimethoxy-4-quinolyl)oxy]phenyl}-N′-[(1-phenylcyclopropyl)carbonyl]thiourea]
48 nM			COc1cc2nccc(Oc3ccc(NC(=S)NC(=O)c4cc(C)ccc4C)cc3Cl)c2cc1OC [Example 1017, N-{3-Chloro-4-[(6,7-dimethoxy-4-quinolyl)oxy]phenyl}-N′-(2,5-dimethylbenzoyl)thiourea]
13 nM			COc1cc2nccc(Oc3ccc(NC(=S)NC(=O)Cc4cccs4)cc3)c2cc1OC [Example 1171, N-{4-[(6,7-Dimethoxy-4-quinolyl)oxy]phenyl}-N′-[2-(2-thienyl)acetyl]thiourea]
> 100 nM	36%		CCN(C(=O)OCc1ccccc1C)c1ccc(Oc2ncnc3cc(OC)c(OC)cc23)cc1Cl [Example 486, 2-Methylbenzyl N-{2-chloro-4-[(6,7-dimethoxy-4-quinazolinyl)oxy]phenyl}-N-ethylcarbamate]
< 10 nM			COc1ccc(C(=O)NC(=S)Nc2ccc(Oc3ncnc4cc(OC)c(OC)cc34)cc2)cc1OC [Example 1203, N-(3,4-Dimethoxybenzoyl)-N′-{4-[(6,7-dimethoxy-4-quinazolinyl)oxy]phenyl}thiourea]
> 100 nM	45%		COc1cc2nccc(Oc3ccc(NC(=S)NC(=O)C4CCCO4)cc3Cl)c2cc1OC (stereo not shown) [Example 766, N-{3-Chloro-4-[(6,7-dimethoxy-4-quinolyl)oxy]phenyl}-N′-tetrahydro-2-furanylcarbonylthiourea]
